Reference: PubChem BioAssay AID330 (DTP/NCI, 2004)
Several values for one entry are separate records, joined by “and”; a condition that tells them apart may be missing. Equal entries are not always repeated. Toxic doses and inconclusive results are not listed. How the source made its calls: active means survival T/C of 150% or more; inactive means T/C below 125% in these data.

Test system: P388 leukemia ip, CD2F1 mice, survival T/C
Test: NCI In Vivo Anticancer Drug Screen. Data for tumor model P388 Leukemia (intraperitoneal) in CD2F1 (CDF1) mice
Conditions: endpoint: median survival time, higher = longer survival
Method in brief: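 Mice carrying the transplanted tumor received test compound or vehicle. Survival was recorded in each group, and the value is the treated-group measurement divided by that of the vehicle-treated control group.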

[1] = dose: 50.0 mg/kg/injection, schedule: Q01DX005 (ip), vehicle: Klucel (hydroxypropylcellulose) (HPC)
[2] = dose: 100.0 mg/kg/injection, schedule: Q01DX005 (ip), vehicle: Klucel (hydroxypropylcellulose) (HPC)
[3] = dose: 60.0 mg/kg/injection, schedule: Q01DX005 (ip), vehicle: saline with Tween-80
[4] = dose: 120.0 mg/kg/injection, schedule: Q01DX005 (ip), vehicle: saline with Tween-80
[5] = dose: 240.0 mg/kg/injection, schedule: Q01DX005 (ip), vehicle: saline with Tween-80
[6] = dose: 50.0 mg/kg/injection, schedule: Q01DX009 (ip), vehicle: saline with Tween-80
[7] = dose: 100.0 mg/kg/injection, schedule: Q01DX009 (ip), vehicle: saline with Tween-80
[8] = dose: 200.0 mg/kg/injection, schedule: Q01DX009 (ip), vehicle: saline with Tween-80
[9] = dose: 50.0 mg/kg/injection, schedule: Q01DX009 (ip), vehicle: saline
[10] = dose: 100.0 mg/kg/injection, schedule: Q01DX009 (ip), vehicle: saline
[11] = dose: 6.25 mg/kg/injection, schedule: Q01DX009 (ip), vehicle: water
[12] = dose: 50.0 mg/kg/injection, schedule: Q01DX005 (ip), vehicle: saline with Tween-80
[13] = dose: 100.0 mg/kg/injection, schedule: Q01DX005 (ip), vehicle: saline with Tween-80
[14] = dose: 200.0 mg/kg/injection, schedule: Q01DX005 (ip), vehicle: saline with Tween-80
[15] = dose: 400.0 mg/kg/injection, schedule: Q01DX009 (ip), vehicle: saline with Tween-80
[16] = dose: 12.5 mg/kg/injection, schedule: Q01DX009 (ip), vehicle: saline
[17] = dose: 25.0 mg/kg/injection, schedule: Q01DX009 (ip), vehicle: saline
[18] = dose: 200.0 mg/kg/injection, schedule: Q01DX009 (ip), vehicle: saline

Measured: T/C

Cc1ccc(C(=O)c2cc3c([nH]c4ccccc43)c(C)c2C(=O)O)cc1
inactive: [1] 103 % of control | [2] 92 % of control | dose: 200.0 mg/kg/injection, schedule: Q01DX005 (ip), vehicle: Klucel (hydroxypropylcellulose) (HPC) 100 % of control

COC(=O)C/C(C)=N/SC(c1ccccc1)(c1ccccc1)c1ccccc1
inactive: dose: 100.0 mg/kg/injection, schedule: Q04DX002 (ip), vehicle: saline with Tween-80 95 % of control | dose: 200.0 mg/kg/injection, schedule: Q04DX002 (ip), vehicle: saline with Tween-80 101 % of control | dose: 400.0 mg/kg/injection, schedule: Q04DX002 (ip), vehicle: saline with Tween-80 94 % of control

COc1ccc(C2=CC3CCC(C2)N3C)cc1 (stereo not drawn)
inactive: dose: 6.25 mg/kg/injection, schedule: Q01DX005 (ip), vehicle: Klucel (hydroxypropylcellulose) (HPC) 96 % of control | dose: 12.5 mg/kg/injection, schedule: Q01DX005 (ip), vehicle: Klucel (hydroxypropylcellulose) (HPC) 110 % of control | dose: 12.5 mg/kg/injection, schedule: Q01DX005 (ip), vehicle: saline 102 % of control | dose: 25.0 mg/kg/injection, schedule: Q01DX005 (ip), vehicle: Klucel (hydroxypropylcellulose) (HPC) 110 % of control and 113 % of control | dose: 25.0 mg/kg/injection, schedule: Q01DX005 (ip), vehicle: saline 98 % of control | dose: 50.0 mg/kg/injection, schedule: Q01DX005 (ip), vehicle: saline 94 % of control

COc1cc(OC)c2ccc(=O)oc2c1/C=C\C1(C)CCC(C)=CC1c1c(OC)cc(OC)c2ccc(=O)oc12 (stereo not drawn)
inactive: dose: 2.5 mg/kg/injection, schedule: Q01DX005 (ip), vehicle: Klucel (hydroxypropylcellulose) (HPC) 96 % of control | dose: 5.0 mg/kg/injection, schedule: Q01DX005 (ip), vehicle: Klucel (hydroxypropylcellulose) (HPC) 105 % of control | dose: 10.0 mg/kg/injection, schedule: Q01DX005 (ip), vehicle: Klucel (hydroxypropylcellulose) (HPC) 117 % of control | dose: 20.0 mg/kg/injection, schedule: Q01DX005 (ip), vehicle: Klucel (hydroxypropylcellulose) (HPC) 96 % of control | dose: 40.0 mg/kg/injection, schedule: Q01DX005 (ip), vehicle: Klucel (hydroxypropylcellulose) (HPC) 86 % of control

COCc1onc(-c2ccc(OC)cc2)c1-c1ccc(OC)cc1
inactive: [3] 105 % of control | [4] 100 % of control | [5] 100 % of control

c1ccc(CSc2nnc3c4ccccc4c4ccccc4c3n2)cc1
inactive: [6] 100 % of control | [7] 102 % of control | [8] 101 % of control

c1ccc(Sc2ncccn2)nc1
inactive: [9] 108 % of control | [10] 115 % of control

N=c1c2ccn(C3OC(CO)C(O)C3O)c2ncn1N (stereo not drawn)
inactive: [11] 117 % of control | dose: 50.0 mg/kg/injection, schedule: Q01DX009 (ip), vehicle: water 121 % of control

COc1ccc(C2CC(=O)C(C(=O)OC3CCCCC3)C2c2ccc(OC)cc2)cc1 (stereo not drawn)
inactive: dose: 12.5 mg/kg/injection, schedule: Q01DX001 (ip), vehicle: Klucel (hydroxypropylcellulose) (HPC) 92 % of control | dose: 25.0 mg/kg/injection, schedule: Q01DX001 (ip), vehicle: Klucel (hydroxypropylcellulose) (HPC) 93 % of control | dose: 50.0 mg/kg/injection, schedule: Q01DX001 (ip), vehicle: Klucel (hydroxypropylcellulose) (HPC) 86 % of control

CC(=O)c1c(C(=O)O)n([O-])c2ccccc2[n+]1=O
inactive: [12] 97 % of control | [13] 94 % of control | [14] 112 % of control

COc1cc(OC)c(NC(=S)Nc2cc(C)ccc2OC)cc1Cl
inactive: dose: 6.25 mg/kg/injection, schedule: Q01DX009 (ip), vehicle: DMSO 94 % of control | dose: 12.5 mg/kg/injection, schedule: Q01DX009 (ip), vehicle: DMSO 91 % of control | dose: 25.0 mg/kg/injection, schedule: Q01DX009 (ip), vehicle: DMSO 91 % of control | dose: 50.0 mg/kg/injection, schedule: Q01DX009 (ip), vehicle: DMSO 91 % of control and 93 % of control | dose: 100.0 mg/kg/injection, schedule: Q01DX009 (ip), vehicle: DMSO 87 % of control

CC(=O)Nc1ccc(NN=O)cn1
inactive: dose: 3.12 mg/kg/injection, schedule: Q01DX009 (ip), vehicle: water 113 % of control | [11] 106 % of control | dose: 12.5 mg/kg/injection, schedule: Q01DX009 (ip), vehicle: water 110 % of control and 114 % of control | dose: 25.0 mg/kg/injection, schedule: Q01DX009 (ip), vehicle: water 116 % of control

O=C1c2ccccc2C(=O)c2c1ccc(C1C(=O)c3ccccc3C1=O)c2-c1c(C2C(=O)c3ccccc3C2=O)ccc2c1C(=O)c1ccccc1C2=O
inactive: [3] 103 % of control | [4] 99 % of control | [5] 97 % of control

CCCCOCC(=O)OCCCC
inactive: [7] 109 % of control | dose: 100.0 mg/kg/injection, schedule: Q04DX003 (ip), vehicle: saline with Tween-80 110 % of control | [8] 118 % of control | dose: 200.0 mg/kg/injection, schedule: Q04DX003 (ip), vehicle: saline with Tween-80 115 % of control | [15] 95 % of control | dose: 400.0 mg/kg/injection, schedule: Q04DX003 (ip), vehicle: saline with Tween-80 100 % of control

Cn1c(=O)oc2ccc(Br)cc21
inactive: dose: 100.0 mg/kg/injection, schedule: Q04DX002 (ip), vehicle: Klucel (hydroxypropylcellulose) (HPC) 104 % of control | dose: 200.0 mg/kg/injection, schedule: Q04DX002 (ip), vehicle: Klucel (hydroxypropylcellulose) (HPC) 104 % of control | dose: 400.0 mg/kg/injection, schedule: Q04DX002 (ip), vehicle: Klucel (hydroxypropylcellulose) (HPC) 100 % of control

CC(C)(C)C=O
inactive: dose: 100.0 mg/kg/injection, schedule: Q04DX003 (ip), vehicle: saline 100 % of control | dose: 200.0 mg/kg/injection, schedule: Q04DX003 (ip), vehicle: saline 100 % of control | dose: 400.0 mg/kg/injection, schedule: Q04DX003 (ip), vehicle: saline 100 % of control

Cc1cc2[nH]c3c(C#N)c(O)c(C)c(=O)n3c2cc1C
inactive: [3] 100 % of control | [4] 100 % of control | [5] 100 % of control

O=C(/C=C(\NC1CCCCC1)C(=O)c1ccccc1)c1ccccc1
inactive: [7] 90 % of control | [8] 90 % of control | [15] 100 % of control

CC(NCCc1ccccc1)C1CCOC1=O (stereo not drawn)
inactive: dose: 6.25 mg/kg/injection, schedule: Q01DX009 (ip), vehicle: saline 98 % of control | [16] 97 % of control and 102 % of control | [17] 103 % of control and 109 % of control | [9] 100 % of control and 97 % of control

CCC(=O)OC1C(OC2C(C)C(OC3CC(C)(OC)C(O)C(C)O3)C(C)C(=O)OC(CC)C(C)(O)C(O)C(C)C(=O)C(C)CC2(C)O)OC(C)CC1N(C)C (stereo not drawn)
inactive: [9] 105 % of control | [10] 97 % of control | [18] 92 % of control

Cc1ccc(-c2nc3scc(C)n3n2)cc1
inactive: dose: 60.0 mg/kg/injection, schedule: Q01DX005 (ip), vehicle: Klucel (hydroxypropylcellulose) (HPC) 100 % of control | dose: 120.0 mg/kg/injection, schedule: Q01DX005 (ip), vehicle: Klucel (hydroxypropylcellulose) (HPC) 96 % of control | dose: 240.0 mg/kg/injection, schedule: Q01DX005 (ip), vehicle: Klucel (hydroxypropylcellulose) (HPC) 103 % of control

CC1CCN(CC(O)C(C)(C)Oc2ccc(-c3ccccc3)cc2)CC1 (stereo not drawn)
inactive: [1] 97 % of control | [2] 93 % of control

Cc1nc2c(sc(=N)n2-c2ccccc2)c(=O)[nH]1
inactive: dose: 12.5 mg/kg/injection, schedule: Q01DX009 (ip), vehicle: saline with Tween-80 115 % of control | dose: 25.0 mg/kg/injection, schedule: Q01DX009 (ip), vehicle: saline with Tween-80 106 % of control | [6] 103 % of control

N#CCSCC(=O)c1ccccc1
inactive: [12] 105 % of control | [13] 105 % of control | [14] 112 % of control

CN1CCCC(C(=O)c2ccccc2)C1 (stereo not drawn)
inactive: [16] 109 % of control | [17] 105 % of control | [9] 107 % of control and 94 % of control

COc1ccc2c(=O)cc(-c3ccccc3)[nH]c2c1
inactive: [16] 90 % of control | [17] 98 % of control | [9] 114 % of control | dose: 65.0 mg/kg/injection, schedule: Q01DX009 (ip), vehicle: saline 118 % of control | [10] 117 % of control and 118 % of control | [18] 99 % of control

COc1ccc(C2(c3ccc(OC)cc3)c3ccccc3C(=O)c3ccc(OC)cc32)cc1
inactive: [12] 98 % of control | [13] 100 % of control | [14] 96 % of control
